Source: patent US10150780B2, “Spirocyclic heterocycle compounds useful as HIV integrase inhibitors” (Merck Sharp & Dohme Corp., priority 2014, dated 2018)
Read-outs that look alike come from different tables or passages of the source.

Test system: HIV-1 (NL4-3 strain)
Experiment: Assay for Inhibition of HIV Replication (VIKING), infected MT4-GFP cells
Assay type: cell-based
Conditions: infected cells at 48 h / 24 h
Experimental: MT4-GFP cells (250,000 cells/ml) were bulk-infected with HIV-1 (NL4-3 strain) at low multiplicity of infection (MOI) in RPMI+10% FBS for 24 hours. Cells were then washed once in RPMI+10% FBS and resuspended RPMI+0% or +100% normal human serum (NHS). Test compounds were serial-diluted in DMSO on ECHO. The infected MT4-GFP cells were added to a 384-well poly-D-lysine coated black plate with clear bottom in which the diluted test compounds were placed. The cells were seeded at 8,000 cells per well and the final DMSO concentration was 0.4%. The infected cells (Green GFP cells) were quantified at both 24 and 48 hours post incubation using Acumen eX3. Viral reproductive ratio (R0) was determined using the number of infected cells at 48 hours divided by the number of infected cells at 24 hours. Percent viral growth inhibition was calculated by [1−(R−Rtripledrug)/(RDMSO−Rtripledrug)]*100.

[1] = MT4-GFP cells infected with HIV-1 NL4-3, RPMI + 0% normal human serum, read-out: VIKING IP50 (nM) with 0% NHS
[2] = MT4-GFP cells infected with HIV-1 NL4-3, RPMI + 100% normal human serum, read-out: VIKING IP50 (nM) with 100% NHS
[3] = Human immunodeficiency virus 1, NL43, 48 h, MT4-GFP cells infected with HIV-1 NL4-3, RPMI + 0% normal human serum, read-out: VIKING IP50 (nM) with 0% NHS
[4] = Human immunodeficiency virus 1, NL43, MT4-GFP cells infected with HIV-1 NL4-3, RPMI + 100% normal human serum, read-out: VIKING IP50 (nM) with 100% NHS

| SMILES | IC50 [1] [nM] | IC50 [2] [nM] | IC50 [3] [nM] | IC50 [4] [nM] |
| --- | --- | --- | --- | --- |
| O=C(NCc1cccc(Cl)c1F)c1cn2c(c(O)c1=O)C(=O)N1CCCCOC1C21CC1 (single isomer, unassigned) [Compound 13] | 1.3 | 4100 | – | – |
| CN1CCCN2C(=O)c3c(O)c(=O)c(C(=O)NCc4cccc(Cl)c4F)cn3C3(CC3)C12 (single isomer, unassigned) [Compound 14] | – | 2340 | 1 | – |
| O=C(NCc1cccc(Cl)c1F)c1cn2c(c(O)c1=O)C(=O)N1CCCOC1C21CC1 (single isomer, unassigned) [Compound 5] | – | > 8000 | 0.8 | – |
| O=C(NCc1cccc(Cl)c1F)c1cn2c(c(O)c1=O)C(=O)N1CCCOC1C21CC1 (single isomer, unassigned) [Compound 6] | 0.6 | 505 | – | – |
| O=C(NCc1cccc(Cl)c1F)c1cn2c(c(O)c1=O)C(=O)N1CCOC1C21CC1 (single isomer, unassigned) [Compound 10] | – | 3900 | 0.4 | – |
| COC1N(N(C)C)C(=O)c2c(O)c(=O)c(C(=O)NCc3ccc(F)cc3F)cn2C12CC2 (single isomer, unassigned) [Compound 2] | 1.7 | 153 | – | – |
| O=C(NCc1cccc(Cl)c1F)c1cn2c(c(O)c1=O)C(=O)N1CCOC1C21CC1 (single isomer, unassigned) [Compound 11] | 0.4 | > 8000 | – | – |
| O=C(NCc1ccc(F)cc1F)c1cn2c(c(O)c1=O)C(=O)N1CCCOC1C21CC1 (single isomer, unassigned) [Compound 4] | 0.5 | 285 | – | – |
| CN(C)N1CC2(CCOCC2)n2cc(C(=O)NCc3ccc(F)cc3F)c(=O)c(O)c2C1=O [Compound 8] | – | – | 19 | 1510 |
| O=C(NCc1cccc(Cl)c1F)c1cn2c(c(O)c1=O)C(=O)N1CCCCOC1C21CC1 (single isomer, unassigned) [Compound 12] | 0.5 | 92.3 | – | – |
| COC1N(N(C)C)C(=O)c2c(O)c(=O)c(C(=O)NCc3ccc(F)cc3F)cn2C12CC2 (single isomer, unassigned) [Compound 1] | – | > 8000 | 1.9 | – |
| CN(C)N1CC2(COC2)n2cc(C(=O)NCc3ccc(F)cc3F)c(=O)c(O)c2C1=O [Compound 7] | – | – | 4 | 1280 |
| CN1CCCN2C(=O)c3c(O)c(=O)c(C(=O)NCc4cccc(Cl)c4F)cn3C3(CC3)C12 (single isomer, unassigned) [Compound 15] | 0.6 | 71.5 | – | – |
| COC1N(N(C)C)C(=O)c2c(O)c(=O)c(C(=O)NCc3ccc(F)cc3F)cn2C12COC2 (stereo not drawn) [Compound 9] | – | – | 7 | 235 |
| O=C(NCc1ccc(F)cc1F)c1cn2c(c(O)c1=O)C(=O)N1CCCOC1C21CC1 (single isomer, unassigned) [Compound 3] | – | 3370 | 0.6 | – |
